Reference: patent EP4610269A1, “UROKINASE PLASMINOGEN ACTIVATOR SURFACE RECEPTOR (UPAR) LIGANDS FOR DIAGNOSTIC OR THERAPEUTIC USE” (3B Pharmaceuticals GmbH, priority 2024, dated 2025)
Read-outs that look alike come from different tables or passages of the source. *1 amine or outer side, *2 acyl side, *3 side chain or, on linkers, in order; H or OH if unused. Where a SMILES comes first, the peptide text is derived from it. Bridges are numbered along the chain shown (N, C = ends). [ ]: non-standard residue; d: D form. The star is where a group is joined. DOTA = O=C(O)CN1CCN(CC(=O)O)CCN(CC(=O)*)CCN(CC(=O)O)CC1; Phe(4-SO3H) = N[C@@H](Cc1ccc(S(=O)(=O)O)cc1)C(=O)O; Pro(cis-4-F) = O=C(O)[C@@H]1C[C@H](F)CN1; Pro(4S-NH2) = N[C@@H]1CN[C@H](C(=O)O)C1; Hyp = O=C(O)[C@@H]1C[C@@H](O)CN1; tBuAla = CC(C)(C)C[C@H](N)C(=O)O; Gly(cBu) = N[C@H](C(=O)O)C1CCC1; Pentanoyl(4-Me) = CC(C)CCC(=O)*; Tic = O=C(O)[C@@H]1Cc2ccccc2CN1; Cit = NC(=O)NCCC[C@H](N)C(=O)O; Butoxycarbonyl = CCCCOC(=O)*; Suc = O=C(CCC(=O)[*:2])[*:1]; Nle = CCCC[C@H](N)C(=O)O; dNMeA = CN[C@H](C)C(=O)O; Api = NC1(C(=O)O)CCNCC1; Nva = CCC[C@H](N)C(=O)O; Pentanoyl = CCCCC(=O)*; CH2 = C([*:1])[*:2]; Ahx = NCCCCCC(=O)O

Tests used:
[1] = biological target: T1, uPAR-expressing HEC-265 human endometrial adenocarcinoma cells (Homo sapiens, UniProt Q03405); experiment: Competitive FACS binding assay; settings: pIC50 category of FACS binding
T1 construct: Cell surface uPAR-expressing HEC-265 human endometrial adenocarcinoma cells; host or cells: HEC-265
T1 sequence (Q03405 23-335): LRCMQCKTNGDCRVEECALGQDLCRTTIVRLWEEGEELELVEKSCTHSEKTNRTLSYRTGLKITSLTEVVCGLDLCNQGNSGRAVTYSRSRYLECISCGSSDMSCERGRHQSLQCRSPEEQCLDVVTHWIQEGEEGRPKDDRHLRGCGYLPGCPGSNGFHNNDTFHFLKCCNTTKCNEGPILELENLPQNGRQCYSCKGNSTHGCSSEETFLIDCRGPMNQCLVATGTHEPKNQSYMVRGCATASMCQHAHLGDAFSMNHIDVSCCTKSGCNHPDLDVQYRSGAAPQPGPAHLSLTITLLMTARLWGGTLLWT
In short: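 Competitive displacement of a 10 nM biotinylated peptide from HEC-265 cells (1 h, 4 °C, PBS/1% BSA), detected via APC-streptavidin by flow cytometry. pIC50 from four-parameter logistic fit of median fluorescence versus concentration.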

human uPAR (uPAR-Fc) = biological target: T2, human uPAR (uPAR-Fc) (Homo sapiens, UniProt Q03405); experiment: Surface plasmon resonance (SPR) assay, single cycle kinetics; assay type: binding; settings: pKD category for uPAR SPR activity assay, uPAR-Fc on Protein A-Chip, 25°C; for Kd: read-out: pKD CAT (converted)
T2 construct: comprising amino acids Leu23-Arg303 according to UniProt entry Q03405.1; purchased R&D Systems 10378-UK-100
T2 sequence (Q03405 23-303): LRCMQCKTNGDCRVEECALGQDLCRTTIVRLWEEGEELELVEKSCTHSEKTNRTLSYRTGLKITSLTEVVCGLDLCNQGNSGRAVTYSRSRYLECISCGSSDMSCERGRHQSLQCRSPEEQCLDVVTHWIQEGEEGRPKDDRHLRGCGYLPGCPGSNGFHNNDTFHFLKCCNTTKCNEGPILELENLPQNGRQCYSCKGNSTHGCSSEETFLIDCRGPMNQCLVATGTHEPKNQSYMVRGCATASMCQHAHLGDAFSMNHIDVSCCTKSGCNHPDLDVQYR
In short: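 uPAR-Fc (Leu23-Arg303 extracellular domains, human IgG1 Fc) captured on Protein A chip to ~2000 RU; single-cycle kinetics at 25°C in HEPES running buffer pH 7.4 with 0.1% DMSO. KD from double-referenced sensorgrams fitted to 1:1 Langmuir model, reported as pKD.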

Row | Molecule | IC50 [1] | Kd (human uPAR (uPAR-Fc)) | Kd (human uPAR (uPAR-Fc); single cycle kinetics) | pIC50 CAT [1] | pKD CAT (human uPAR (uPAR-Fc))
1 | CCCCOC(=O)N[C@H]1CSSC[C@@H](C(=O)N[C@@H](CC(=O)O)C(N)=O)NC(=O)[C@H](CCC)NC(=O)[C@H]([C@@H](C)CC)NC(=O)[C@@H]2C[C@@H](O)CN2C(=O)[C@@H]2C[C@H](F)CN2C(=O)[C@H](Cc2ccccc2)NC(=O)[C@H](Cc2ccc(O)cc2)NC(=O)[C@H](CCCCNC(=O)CN2CCN(CC(=O)O)CCN(CC(=O)O)CCN(CC(=O)O)CC2)NC(=O)[C@H]([C@@H](C)O)NC1=O [UPAR-141, Butoc-[Cys-Thr-Lys(DOTA)-Tyr-Phe-4Cfp-Hyp-Ile-Nva-Cys]-Asp-NH2] (Butoxycarbonyl-CTK(DOTA)YF[Pro(cis-4-F)][Hyp]I[Nva]CD-NH2; disulfide 1-10) | 39.8 to 100 nM | 10 to 100 nM |  |  | 
2 | CC(C)CCC(=O)N[C@H]1CSSC[C@@H](C(N)=O)NC(=O)[C@H](CC(C)C)NC(=O)[C@H](C2CCC2)NC(=O)[C@@H](C)NC(=O)[C@@H]2CCCN2C(=O)[C@H](Cc2ccccc2)NC(=O)[C@H](Cc2ccc(O)cc2)NC(=O)[C@H](CCC(N)=O)NC(=O)[C@H](CCCNC(N)=O)NC1=O [UPAR-453, iHex-[Cys-Cit-Gln-Tyr-Phe-Pro-ala-Cbg-Leu-Cys]-NH2] ({Pentanoyl(4-Me)}-C[Cit]QYFP[dA][Gly(cBu)]LC-NH2; disulfide 1-10) | ≤ 10 nM |  | 1.58 to 10 nM |  | 
3 | CCCC[C@@H]1NC(=O)[C@H](CCCNC(=N)N)NC(=O)[C@@H](NC(=O)[C@H](CC(C)C)NC(=O)[C@H](CC(=O)O)NC(C)=O)CSSC[C@@H](C(N)=O)NC(=O)[C@H](CC(C)C)NC(=O)[C@H]([C@@H](C)CC)NC(=O)[C@@H]2CCCN2C(=O)[C@@H]2CCCN2C(=O)[C@H](Cc2ccccc2)NC(=O)[C@H](Cc2ccc(O)cc2)NC1=O [UPAR-431, Ac-Asp-Leu-[Cys-Arg-Nle-Tyr-Phe-Pro-Pro-Ile-Leu-Cys]-NH2] (Ac-DLCR[Nle]YFPPILC-NH2; disulfide 3-12) | ≤ 10 nM |  | < 1.58 nM |  | 
4 | CCCCC(=O)N[C@H]1CSSC[C@@H](C(N)=O)NC(=O)[C@H](CCC)NC(=O)[C@H]([C@@H](C)CC)NC(=O)[C@@H]2C[C@@H](O)CN2C(=O)[C@@H](C)N(C)C(=O)[C@H](Cc2ccccc2)NC(=O)[C@H](Cc2ccc(O)cc2)NC(=O)[C@H](CCC(N)=O)NC(=O)[C@H](CCCNC(=N)N)NC1=O [UPAR-211, Pent-[Cys-Arg-Gln-Tyr-Phe-nma-Hyp-Ile-Nva-Cys]-NH2] (Pentanoyl-CRQYF[dNMeA][Hyp]I[Nva]C-NH2; disulfide 1-10) | ≥ 126 nM | > 100 nM |  |  | 
5 | CCC[C@H](NC(=O)CCC(=O)O)C(=O)N[C@H]1CSSC[C@@H](C(N)=O)NC(=O)[C@H](CCC)NC(=O)[C@H]([C@@H](C)CC)NC(=O)[C@@H]2C[C@@H](O)CN2C(=O)[C@@H]2CCCN2C(=O)[C@H](Cc2ccccc2)NC(=O)[C@H](Cc2ccc(O)cc2)NC(=O)[C@H](CCCCNC(=O)CN2CCN(CC(=O)O)CCN(CC(=O)O)CCN(CC(=O)O)CC2)NC(=O)[C@H]([C@@H](C)O)NC1=O [UPAR-297, Succinyl-Nva-[Cys-Thr-Lys(DOTA)-Tyr-Phe-Pro-Hyp-Ile-Nva-Cys]-NH2] (Suc-[Nva]CTK(DOTA)YFP[Hyp]I[Nva]C-NH2; disulfide 2-11) | ≤ 10 nM | < 1.58 nM |  |  | 
6 | CCCCOC(=O)N[C@H]1CSSC[C@@H](C(N)=O)NC(=O)[C@H](CCC)NC(=O)[C@H]([C@@H](C)CC)NC(=O)[C@@H]2C[C@@H](O)CN2C(=O)[C@@H]2C[C@@H](O)CN2C(=O)[C@H](Cc2ccccc2)NC(=O)[C@H](Cc2ccc(O)cc2)NC(=O)[C@H](CCCCNC(=O)CN2CCN(CC(=O)O)CCN(CC(=O)O)CCN(CC(=O)O)CC2)NC(=O)[C@H]([C@@H](C)O)NC1=O [UPAR-128, Butoc-[Cys-Thr-Lys(DOTA)-Tyr-Phe-Hyp-Hyp-Ile-Nva-Cys]-NH2] (Butoxycarbonyl-CTK(DOTA)YF[Hyp][Hyp]I[Nva]C-NH2; disulfide 1-10) | ≤ 10 nM | < 1.58 nM |  |  | 
7 | CCCCC(=O)N[C@H]1CSCSC[C@@H](C(N)=O)NC(=O)[C@H](CCC)NC(=O)[C@H]([C@@H](C)CC)NC(=O)[C@@H]2C[C@@H](O)CN2C(=O)[C@@H]2CCCN2C(=O)[C@H](Cc2ccccc2)NC(=O)[C@H](Cc2ccc(O)cc2)NC(=O)[C@H](CCC(N)=O)NC(=O)[C@H](CCCNC(N)=O)NC1=O [UPAR-215, Pent-[Smc-Cit-Gln-Tyr-Phe-Pro-Hyp-Ile-Nva-Cys]-NH2] (Pentanoyl-C[Cit]QYFP[Hyp]I[Nva]C-NH2; linker 1-10 via CH2) | 12.6 to 31.6 nM | 1.58 to 10 nM |  |  | 
8 | CC[C@H](C)[C@@H]1NC(=O)[C@@H](C)NC(=O)[C@@H]2CCCN2C(=O)[C@H](Cc2ccccc2)NC(=O)[C@H](Cc2ccc(O)cc2)NC(=O)[C@H](CCC(N)=O)NC(=O)[C@H](CCCNC(=N)N)NC(=O)[C@@H](NC(=O)[C@H](CC(C)C)NC(=O)CCCCCNC(=O)CN2CCN(CC(=O)O)CCN(CC(=O)O)CCN(CC(=O)O)CC2)CSSC[C@@H](C(N)=O)NC(=O)[C@H](CC(C)C)NC1=O [UPAR-291, DOTA-Ahx-Leu-[Cys-Arg-Gln-Tyr-Phe-Pro-ala-Ile-Leu-Cys]-NH2] ({DOTA-Ahx}-LCRQYFP[dA]ILC-NH2; disulfide 2-11) | ≤ 10 nM | < 1.58 nM |  |  | 
9 | CC[C@H](C)[C@@H]1NC(=O)[C@@H](C)NC(=O)[C@@H]2CCCN2C(=O)[C@H](Cc2ccccc2)NC(=O)[C@H](Cc2ccc(O)cc2)NC(=O)[C@H](CCC(N)=O)NC(=O)[C@H](CCCNC(N)=O)NC(=O)[C@@H](NC(=O)CCC(C)C)CSSC[C@@H](C(N)=O)NC(=O)[C@H](CC(C)(C)C)NC1=O [UPAR-477, iHex-[Cys-Cit-Gln-Tyr-Phe-Pro-ala-Ile-Npg-Cys]-NH2] ({Pentanoyl(4-Me)}-C[Cit]QYFP[dA]I[tBuAla]C-NH2; disulfide 1-10) | 39.8 to 100 nM |  | 10 to 100 nM |  | 
10 | CCCCC(=O)N[C@H]1CSSC[C@@H](C(N)=O)NC(=O)[C@H](CCC)NC(=O)[C@H]([C@@H](C)CC)NC(=O)[C@@H]2C[C@H](N)CN2C(=O)[C@@H]2CCCN2C(=O)[C@H](Cc2ccccc2)NC(=O)[C@H](Cc2ccc(O)cc2)NC(=O)[C@H](CCCCNC(=O)CN2CCN(CC(=O)O)CCN(CC(=O)O)CCN(CC(=O)O)CC2)NC(=O)[C@H](CCCNC(N)=O)NC1=O [UPAR-325, Pent-[Cys-Cit-Lys(DOTA)-Tyr-Phe-Pro-4Ap-Ile-Nva-Cys]-NH2] (Pentanoyl-C[Cit]K(DOTA)YFP[Pro(4S-NH2)]I[Nva]C-NH2; disulfide 1-10) | ≤ 10 nM | < 1.58 nM |  |  | 
11 | CCCCC(=O)N[C@H]1CSSC[C@@H](C(N)=O)NC(=O)[C@H](CCC)NC(=O)[C@H]([C@@H](C)CC)NC(=O)[C@@H]2C[C@@H](O)CN2C(=O)[C@@H]2CCCN2C(=O)[C@H](Cc2ccccc2)NC(=O)[C@H](Cc2ccc(S(=O)(=O)O)cc2)NC(=O)[C@H](CCCCNC(=O)CN2CCN(CC(=O)O)CCN(CC(=O)O)CCN(CC(=O)O)CC2)NC(=O)[C@H](CCCNC(N)=O)NC1=O [UPAR-209, Pent-[Cys-Cit-Lys(DOTA)-Fso-Phe-Pro-Hyp-Ile-Nva-Cys]-NH2] (Pentanoyl-C[Cit]K(DOTA)[Phe(4-SO3H)]FP[Hyp]I[Nva]C-NH2; disulfide 1-10) | ≤ 10 nM | 1.58 to 10 nM |  |  | 
12 | CCCCC(=O)N[C@H]1CSSC[C@@H](C(N)=O)NC(=O)[C@H](CCC)NC(=O)[C@H]([C@@H](C)CC)NC(=O)[C@@H]2C[C@@H](O)CN2C(=O)[C@@H]2CCCN2C(=O)[C@@H]2Cc3ccccc3CN2C(=O)[C@H](Cc2ccc(O)cc2)NC(=O)[C@H](CCCCNC(=O)CN2CCN(CC(=O)O)CCN(CC(=O)O)CCN(CC(=O)O)CC2)NC(=O)[C@H](CCCNC(N)=O)NC1=O [UPAR-252, Pent-[Cys-Cit-Lys(DOTA)-Tyr-Tic-Pro-Hyp-Ile-Nva-Cys]-NH2] (Pentanoyl-C[Cit]K(DOTA)Y[Tic]P[Hyp]I[Nva]C-NH2; disulfide 1-10) | ≥ 126 nM | > 100 nM |  |  | 
13 | CC[C@H](C)[C@@H]1NC(=O)[C@@H](C)NC(=O)[C@@H]2CCCN2C(=O)[C@H](Cc2ccccc2)NC(=O)[C@H](Cc2ccc(O)cc2)NC(=O)[C@H](CCC(N)=O)NC(=O)[C@@H](C)NC(=O)[C@@H](NC(=O)CCC(C)C)CSSC[C@@H](C(N)=O)NC(=O)[C@H](CC(C)C)NC1=O [UPAR-231, iHex-[Cys-ala-Gln-Tyr-Phe-Pro-ala-Ile-Leu-Cys]-NH2] ({Pentanoyl(4-Me)}-C[dA]QYFP[dA]ILC-NH2; disulfide 1-10) | 39.8 to 100 nM | 10 to 100 nM |  |  | 
14 | Pent-[Cys-Cit-Lys(InDOTA)-Tyr-Mpa-Pro-Hyp-Ile-Nva-Cys]-NH2 [UPAR-331] |  |  |  | A (pIC50 values ≥8.0) | A (pKD values ≥ 8.8)
15 | Pent-[Cys-Cit-Lys(GdDOTA)-Mpa-Phe-Pro-Hyp-Ile-Nva-Cys]-NH2 [UPAR-251] |  |  |  | A (pIC50 values ≥8.0) | A (pKD values ≥ 8.8)
16 | CCCCC(=O)N[C@H]1CSSC[C@@H](C(N)=O)NC(=O)[C@H](CCC)NC(=O)[C@H]([C@@H](C)CC)NC(=O)[C@@H]2C[C@@H](O)CN2C(=O)[C@@H]2CCCN2C(=O)[C@H](Cc2ccccc2)NC(=O)[C@H](Cc2ccc(O)cc2)NC(=O)C2(CCN(C(=O)CN3CCN(CC(=O)O)CCN(CC(=O)O)CCN(CC(=O)O)CC3)CC2)NC(=O)[C@H]([C@@H](C)O)NC1=O [UPAR-288, Pent-[Cys-Thr-Apc(DOTA)-Tyr-Phe-Pro-Hyp-Ile-Nva-Cys]-NH2] (Pentanoyl-CT[Api](DOTA)YFP[Hyp]I[Nva]C-NH2; disulfide 1-10) | ≤ 10 nM | < 1.58 nM |  |  | 
